Results as given in publication PMC7717570, “Deciphering the enzymatic target of a new family of antischistosomal agents bearing a quinazoline scaffold using complementary computational tools” (Journal of Enzyme Inhibition and Medicinal Chemistry, 2020).
Like-named read-outs stand apart in the source and are kept apart here.

What was measured:
[1] = tested on: Schistosoma mansoni mature worms; design: method as in PMID 30669086; conditions: cited from earlier work; for Worm killing (% of total) / Worm killing (female worms) / Worm killing (male worms): day 5, previously reported; for EC50: previously reported
[2] = tested on: S. mansoni-infected mouse model; test: In vivo antischistosomal efficacy in the S. mansoni-infected mouse model; design: species or system Schistosoma mansoni; conditions: mice
Experimental: PZQ was obtained from Egyptian International Pharmaceutical Industries Company (EIPICO) and aminobenzotriazole (ABT) from Fluorochem Ltd.
Male Swiss albino mice (CD-1) obtained from SBSC and weighing 18–20 g were housed under environmentally controlled room temperature of 20–22 °C, 12 h light/dark cycle and 50–60% humidity with food and water ad libitum throughout the acclimatisation and experimental periods. All the animal experiments were conducted in accordance with the Guide for Care and Use of Laboratory Animals and were approved by the Institutional Review Board of Theodor Bilharz Research Institute (TBRI).
Mice were infected with S. mansoni cercariae [provided by Schistosome Biology Supply Center (SBSC)] using body immersion[16] by exposure to 80 ± 10 cercariae/mouse. Infected mice were divided into six groups: groups 1 and 2 were treated the vehicle and the CYP450 inhibitor ABT respectively; groups 3 and 4 were dosed for 5 days with NPD-1246 at 20 and 10 mg/kg, respectively, while group 5 was treated with PZQ at 10 mg/kg/day for 5 days. Group 6 was treated with NPD-1246 combined with PZQ, each at 10 mg/kg/day for 5 days starting from week 7 post-infection. To minimise first-pass elimination, ABT was administered at 100 mg/kg/day for 5 days 2 h prior to each compound administration. NPD-1246 and PZQ were freshly suspended in 2% Cremophore-EL (Sigma-Aldrich). All drug administrations were performed orally.
Ten days post-treatment, all mice were sacrificed and perfused, and the number of worms recovered (worm burden) was quantified and sexed. The number of eggs per gram of liver or intestinal tissue was counted. The percentage of egg developmental stages (oogram pattern) was studied[19] in which eggs at different stages of maturity (from I to IV) were identified and counted. Mature eggs and dead eggs (granular, dark, and semi-transparent) were also counted in three fragments of intestine and the mean number of each stage was calculated.
The percentage reduction of worm or egg burden in each treated group was calculated. […] Results are expressed as mean ± SEM. A two-tailed, unpaired Student’s t-test was used to detect the significance of difference between the means of different groups. Results are considered significant if p value is <0.05.

[3] = Microsomal stability, mouse liver microsomes (S9), Phase-I (CYP450-NADPH); type: in vitro ADME; conditions: 5 µM
Experimental: (§1) Mouse or human liver microsomes (S9), reduced nicotinamide adenine dinucleotide phosphate (NADPH) generating system solutions and uridine glucuronosyltransferase (UGT) reaction mix (BD Biosciences) were kept at −80 °C. The test compounds and reference compound diclofenac were formulated in DMSO at […]. The assay was carried out based on the BD Biosciences Guidelines for Use (TF000017 Rev1.0) with minor adaptations. The metabolic stability of the compounds was studied through the CYP450 superfamily (Phase-I metabolism) by fortification with NADPH and through UGT enzymes (Phase-II metabolism) by fortification with uridine diphosphate glucuronic acid (UDPGA). For CYP450 and other NADPH dependent enzymes, the compounds were incubated at 5 µM together with 0.5 mg/mL S9 in potassium phosphate buffer in a reaction started by the addition of 1 mM NADP. At defined time points, 20 µL was withdrawn from the reaction mixture and 80 µL cold acetonitrile (ACN) was added to inactivate the enzymes and precipitate the protein. The mixture was vortexed for 30 s and centrifuged at 4 °C for 5 min to collect the supernatant. For UGT enzymes, the compounds were incubated at 5 µM together with 0.5 mg/mL S9 in a reaction started by the addition of 2 mM UDPGA cofactor. The loss of parent compound was determined using liquid chromatography (UPLC) (Waters Aquity^TM) coupled with tandem quadrupole mass spectrometry (MS^2) (Waters Xevo^TM), equipped with an electrospray ionisation (ESI) interface and operated in multiple reaction monitoring (MRM) mode.

[4] = tested on: Schistosoma mansoni worm couples; design: method as in PMID 30669086; conditions: previously reported, cited from earlier work
[5] = Microsomal stability, mouse liver microsomes (S9), Phase-II (UGT enzymes); type: in vitro ADME; conditions: 5 µM
Experimental: as §1

[6] = oral 20 mg/kg/day for 5 days with ABT

% Parent compound remaining upon incubation ([3]; 0 h): 100% | % Parent compound remaining upon incubation ([3]; 0.25 h): 66% | % Parent compound remaining upon incubation ([3]; 0.5 h): 27% | % Parent compound remaining upon incubation ([3]; 1 h): 8% | % Parent compound remaining upon incubation ([5]; 0 h): 100% | % Parent compound remaining upon incubation ([5]; 0.25 h): 111% | % Parent compound remaining upon incubation ([5]; 0.5 h): 111% | % Parent compound remaining upon incubation ([5]; 1 h): 106%
SMILES: O=c1c2ccccc2n(Cc2ccc(C(F)(F)F)cc2)c(=O)n1Cc1ccccc1 [NPD-1246, 3-Benzyl-1-(4-(trifluoromethyl)benzyl)quinazoline-2,4(1H,3H)-dione]
Worm killing (% of total) ([1]; 5 µM): 0% | Worm killing (% of total) ([1]; 10 µM): 0% | Worm killing (% of total) ([1]; 25 µM): 0% | Worm killing (% of total) ([1]; 50 µM): 53% | Worm killing (% of total) ([1]; 100 µM): 100% | Worm killing (female worms) ([1]; female worms, 5 µM): 0 | Worm killing (female worms) ([1]; female worms, 10 µM): 0 | Worm killing (female worms) ([1]; female worms, 25 µM): 0 | Worm killing (female worms) ([1]; female worms, 50 µM): 57 | Worm killing (female worms) ([1]; female worms, 100 µM): 100 | EC50 ([1]; female worms, read-out: EC50 (worm killing, female worms)): 50 µM | EC50 ([1]; male and female worms, read-out: EC50 (worm killing)): 50 µM | Worm killing (male worms) ([1]; male worms, 5 µM): 0 | Worm killing (male worms) ([1]; male worms, 10 µM): 0 | Worm killing (male worms) ([1]; male worms, 25 µM): 0 | Worm killing (male worms) ([1]; male worms, 50 µM): 50 | Worm killing (male worms) ([1]; male worms, 100 µM): 100 | EC50 ([1]; male worms, read-out: EC50 (worm killing, male worms)): 50 µM | Percentage of dead eggs compared to the infected untreated group [2, 6]: significant increase | Reduction in intestinal tissue egg load (percentage change from infected control) [2, 6]: 18% | Reduction in total worm burden (percentage change from infected control) ([2]; oral 20 mg/kg/day for 5 days with ABT 100 mg/kg/day, sacrificed 10 days post-treatment): 24% | Uncoupling ([4]; 5 µM): No | Uncoupling ([4]; 10 µM): No | Uncoupling ([4]; 25 µM, listed as NPD-1246 (1)): Uncoupling and Yes | Reduction in number of eggs (%) ([4]; 50 µM): 100% | Uncoupling ([4]; 50 µM, listed as NPD-1246 (1)): Uncoupling and Yes | Reduction in number of eggs (%) ([4]; 100 µM): 100% | Uncoupling ([4]; 100 µM, listed as NPD-1246 (1)): Uncoupling and Yes
